Earlier results, collected in patent publication US7014865B1, “Natural formulation for the treatment and prevention of depression, containing St. John's Wort and derivatives of dihydro- and tetrahydrofolic acid” (Merck Patent GmbH, priority 1998, dated 2006).

Columns and labels:
Conditions in all cases: in vitro
[1] = system: uptake of dopamine
[2] = system: uptake of serotonin
[3] = system: uptake of noradrenaline
[4] = system: uptake of L-glutamate
[5] = system: uptake of GABA

hyperforin
potent inhibitor: inhibition of uptake of dopamine [1] | inhibition of uptake of serotonin [2] | inhibition of uptake of noradrenaline [3] | inhibition of uptake of L-glutamate [4] | inhibition of uptake of GABA [5]
